# Data from the supplement of paper PMC10307832.
# What was measured:
# Assay in all cases: relative viability (nuclei count vs DMSO), 5 days (fraction); higher = more cells survive
# LCLC-103H = test system: LCLC-103H
# Summary of the method: (§1)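 Relative viability was taken as the ratio of nuclei in treated wells to nuclei in vehicle wells. Lung cancer cell lines in 1536-well plates received compounds by pin tool one day after seeding, either one drug alone or a fixed anchor-drug dose plus five library-drug doses (not always all listed) in √10 steps. Nuclei were counted on 4× images after 5 days of treatment, and values are medians of duplicate plates.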
# LXF-289 = test system: LXF-289
# Summary of the method: as §1
# NCI-H1355 = test system: NCI-H1355
# Summary of the method: as §1
# NCI-H1563 = test system: NCI-H1563
# Summary of the method: as §1
# NCI-H1651 = test system: NCI-H1651
# Summary of the method: as §1
# NCI-H1755 = test system: NCI-H1755
# Summary of the method: as §1
# NCI-H1792 = test system: NCI-H1792
# Summary of the method: as §1
# NCI-H1915 = test system: NCI-H1915
# Summary of the method: as §1
# NCI-H2347 = test system: NCI-H2347
# Summary of the method: as §1
# NCI-H3122 = test system: NCI-H3122
# Summary of the method: as §1
# NCI-H322M = test system: NCI-H322M
# Summary of the method: as §1
# NCI-H441 = test system: NCI-H441
# Summary of the method: as §1
# NCI-H460 = test system: NCI-H460
# Summary of the method: as §1
# NCI-H520 = test system: NCI-H520
# Summary of the method: as §1
# NCI-H596 = test system: NCI-H596
# Summary of the method: as §1
# NCI-H661 = test system: NCI-H661
# Summary of the method: as §1
# NCI-H727 = test system: NCI-H727
# Summary of the method: as §1
# PC-14 = test system: PC-14
# Summary of the method: as §1
# RERF-LC-KJ = test system: RERF-LC-KJ
# Summary of the method: as §1
# SK-MES-1 = test system: SK-MES-1
# Summary of the method: as §1
smiles,measurement,setting,value
Cc1sc2c(c1C)C(c1ccc(Cl)cc1)=N[C@@H](CC(=O)OC(C)(C)C)c1nnc(C)n1-2 [JQ1] + C[C@@H](Oc1cc(-c2cnn(C3CCNCC3)c2)cnc1N)c1c(Cl)ccc(F)c1Cl [Crizotinib] (partner 1 µM),relative viability,LCLC-103H; first compound 0.04 µM,1
same,relative viability,LCLC-103H; first compound 0.1265 µM,0.94
same,relative viability,LCLC-103H; first compound 0.4 µM,0.847
same,relative viability,LCLC-103H; first compound 1.265 µM,0.612
same,relative viability,LCLC-103H; first compound 4 µM,0.506
same,relative viability,LXF-289; first compound 0.04 µM,0.84
same,relative viability,LXF-289; first compound 0.1265 µM,0.746
same,relative viability,LXF-289; first compound 0.4 µM,0.743
same,relative viability,LXF-289; first compound 1.265 µM,0.677
same,relative viability,LXF-289; first compound 4 µM,0.479
same,relative viability,NCI-H1355; first compound 0.04 µM,1.01
same,relative viability,NCI-H1355; first compound 0.1265 µM,0.963
same,relative viability,NCI-H1355; first compound 0.4 µM,0.768
same,relative viability,NCI-H1355; first compound 1.265 µM,0.559
same,relative viability,NCI-H1355; first compound 4 µM,0.614
same,relative viability,NCI-H1563; first compound 0.04 µM,0.839
same,relative viability,NCI-H1563; first compound 0.1265 µM,0.764
same,relative viability,NCI-H1563; first compound 0.4 µM,0.881
same,relative viability,NCI-H1563; first compound 1.265 µM,0.631
same,relative viability,NCI-H1563; first compound 4 µM,0.615
same,relative viability,NCI-H1651; first compound 0.04 µM,0.795
same,relative viability,NCI-H1651; first compound 0.1265 µM,0.784
same,relative viability,NCI-H1651; first compound 0.4 µM,0.701
same,relative viability,NCI-H1651; first compound 1.265 µM,0.639
same,relative viability,NCI-H1651; first compound 4 µM,0.548
same,relative viability,NCI-H1755; first compound 0.04 µM,0.899
same,relative viability,NCI-H1755; first compound 0.1265 µM,0.854
same,relative viability,NCI-H1755; first compound 0.4 µM,0.901
same,relative viability,NCI-H1755; first compound 1.265 µM,0.67
same,relative viability,NCI-H1755; first compound 4 µM,0.608
same,relative viability,NCI-H1792; first compound 0.04 µM,0.968
same,relative viability,NCI-H1792; first compound 0.4 µM,0.948
same,relative viability,NCI-H1792; first compound 1.265 µM,0.768
same,relative viability,NCI-H1792; first compound 4 µM,0.644
same,relative viability,NCI-H1915; first compound 0.04 µM,0.891
same,relative viability,NCI-H1915; first compound 0.1265 µM,0.829
same,relative viability,NCI-H1915; first compound 0.4 µM,0.735
same,relative viability,NCI-H1915; first compound 1.265 µM,0.462
same,relative viability,NCI-H1915; first compound 4 µM,0.233
same,relative viability,NCI-H2347; first compound 0.04 µM,0.673
same,relative viability,NCI-H2347; first compound 0.1265 µM,0.549
same,relative viability,NCI-H2347; first compound 0.4 µM,0.646
same,relative viability,NCI-H2347; first compound 1.265 µM,0.555
same,relative viability,NCI-H2347; first compound 4 µM,0.431
same,relative viability,NCI-H3122; first compound 0.04 µM,0.312
same,relative viability,NCI-H3122; first compound 0.1265 µM,0.315
same,relative viability,NCI-H3122; first compound 0.4 µM,0.354
same,relative viability,NCI-H3122; first compound 1.265 µM,0.323
same,relative viability,NCI-H3122; first compound 4 µM,0.413
same,relative viability,NCI-H322M; first compound 0.04 µM,0.83
same,relative viability,NCI-H322M; first compound 0.1265 µM,0.839
same,relative viability,NCI-H322M; first compound 0.4 µM,0.856
same,relative viability,NCI-H322M; first compound 1.265 µM,0.533
same,relative viability,NCI-H322M; first compound 4 µM,0.458
same,relative viability,NCI-H441; first compound 0.04 µM,0.813
same,relative viability,NCI-H441; first compound 0.1265 µM,0.616
same,relative viability,NCI-H441; first compound 0.4 µM,0.713
same,relative viability,NCI-H441; first compound 1.265 µM,0.297
same,relative viability,NCI-H441; first compound 4 µM,0.221
same,relative viability,NCI-H460; first compound 0.04 µM,0.806
same,relative viability,NCI-H460; first compound 0.1265 µM,0.597
same,relative viability,NCI-H460; first compound 0.4 µM,0.532
same,relative viability,NCI-H460; first compound 1.265 µM,0.0339
same,relative viability,NCI-H460; first compound 4 µM,0.0299
same,relative viability,NCI-H520; first compound 0.04 µM,0.97
same,relative viability,NCI-H520; first compound 0.1265 µM,0.997
same,relative viability,NCI-H520; first compound 0.4 µM,0.578
same,relative viability,NCI-H520; first compound 1.265 µM,0.368
same,relative viability,NCI-H520; first compound 4 µM,0.166
same,relative viability,NCI-H596; first compound 0.04 µM,0.977
same,relative viability,NCI-H596; first compound 0.1265 µM,0.85
same,relative viability,NCI-H596; first compound 0.4 µM,0.472
same,relative viability,NCI-H596; first compound 1.265 µM,0.498
same,relative viability,NCI-H596; first compound 4 µM,0.432
same,relative viability,NCI-H661; first compound 0.04 µM,1
same,relative viability,NCI-H661; first compound 0.1265 µM,1.08
same,relative viability,NCI-H661; first compound 1.265 µM,1.05
same,relative viability,NCI-H661; first compound 4 µM,0.776
same,relative viability,NCI-H727; first compound 0.04 µM,0.823
same,relative viability,NCI-H727; first compound 0.1265 µM,1.02
same,relative viability,NCI-H727; first compound 0.4 µM,0.631
same,relative viability,NCI-H727; first compound 1.265 µM,0.338
same,relative viability,NCI-H727; first compound 4 µM,0.362
same,relative viability,PC-14; first compound 0.04 µM,0.907
same,relative viability,PC-14; first compound 0.1265 µM,0.781
same,relative viability,PC-14; first compound 0.4 µM,0.776
same,relative viability,PC-14; first compound 1.265 µM,0.611
same,relative viability,PC-14; first compound 4 µM,0.426
same,relative viability,RERF-LC-KJ; first compound 0.04 µM,0.783
same,relative viability,RERF-LC-KJ; first compound 0.1265 µM,0.879
same,relative viability,RERF-LC-KJ; first compound 0.4 µM,0.777
same,relative viability,RERF-LC-KJ; first compound 1.265 µM,0.635
same,relative viability,RERF-LC-KJ; first compound 4 µM,0.29
same,relative viability,SK-MES-1; first compound 0.04 µM,0.873
same,relative viability,SK-MES-1; first compound 0.1265 µM,0.77
same,relative viability,SK-MES-1; first compound 0.4 µM,0.672
same,relative viability,SK-MES-1; first compound 1.265 µM,0.467
same,relative viability,SK-MES-1; first compound 4 µM,0.295
